Reference: ChEMBL document CHEMBL3714710, “Diaminopyrimidines as P2X3 and P2X2/3 modulators” (2010)
Active and inactive are the calls of the source. The calls are words filed in the database; no cut-off is given here.

What follows are molecules tested against T1, P2X purinoceptor 3 (Rattus norvegicus) (UniProt P49654) (assay: Antagonist activity against rat P2X3 receptor expressed in CHOK1 cells assessed as inhibition of alpha,beta-meATP-induced calcium response incubated for 20 mins by Fluo-3AM dye based FLIPR assay). Conditions: CHO-K1.
T1 sequence (whole entry): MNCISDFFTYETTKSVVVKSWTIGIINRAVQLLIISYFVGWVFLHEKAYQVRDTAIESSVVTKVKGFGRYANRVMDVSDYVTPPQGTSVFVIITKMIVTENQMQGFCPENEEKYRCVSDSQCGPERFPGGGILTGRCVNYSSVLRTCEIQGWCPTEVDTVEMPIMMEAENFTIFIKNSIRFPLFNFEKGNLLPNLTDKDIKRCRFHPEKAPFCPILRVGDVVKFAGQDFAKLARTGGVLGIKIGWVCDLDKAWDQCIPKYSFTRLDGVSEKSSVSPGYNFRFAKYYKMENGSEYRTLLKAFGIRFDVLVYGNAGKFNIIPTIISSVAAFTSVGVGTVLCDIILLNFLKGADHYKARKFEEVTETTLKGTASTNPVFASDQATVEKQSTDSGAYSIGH
Format: functional, cell-based

inhibition | Structure (SMILES)
Active | CC(C)c1cc2cccnc2cc1Oc1cnc(N)nc1N
Active | Cc1nccc2cc(Oc3cnc(N)nc3N)c(C(C)C)cc12
Active | Cc1cccc2cc(Oc3cnc(N)nc3N)c(C(C)C)cc12
Active | CC(C)c1cc2ncccc2cc1Oc1cnc(NC(CO)CO)nc1N

The next lines start with the molecule.

Structure (SMILES) | inhibition
Cc1cccc2cc(C(C)C)c(Oc3cnc(N)nc3N)cc12 | Active
Cc1ccc2nc(C(C)C)c(Oc3cnc(N)nc3N)cc2c1 | Active
CC(C)c1nc2ccccc2cc1Oc1cnc(N)nc1N | Active
COc1ccc2cc(Oc3cnc(N)nc3N)c(C(C)C)cc2c1 | Active
Nc1ncc(Oc2cc3ccccc3cc2I)c(N)n1 | Active
Cc1cccc2cc(Oc3cnc(N)nc3N)c(C(C)C)nc12 | Active
